Measurements published in ChEMBL document CHEMBL1142841, “Synthesis and evaluation of anti-HIV activity of isatin beta-thiosemicarbazone derivatives” (Bioorg Med Chem Lett, 2005).

What was measured:
CCRF-CEM = test: Concentration required to reduce the viability of mock-infected human CEM cells; type: functional
[1] = test system: Human immunodeficiency virus; test: Effective concentration required to inhibit HTLV-III B induced cytopathicity in human CEM cells; type: functional, organism-based; details: Human immunodeficiency virus 1, CCRF-CEM
[2] = test system: Human immunodeficiency virus; test: Ratio of CC50 required to reduce the viability of mock-infected human CEM cells to EC50 required to inhibit HTLV-III B induced cytopathicity in that cells; type: functional, Human immunodeficiency virus 1, CCRF-CEM

| Compound | EC50 [1] [µM] | CC50 (CCRF-CEM) [µM] | Selectivity index [2] |
| --- | --- | --- | --- |
| CCN(CC)C(=S)N/N=C1\C(=O)N(CN2CC(C)OC(C)C2)c2ccccc21 (stereo not given) | > 13.3 | 13.3 | <1 |
| CCN(CC)C(=S)N/N=C1\C(=O)N(CN2CCN(c3cc4c(cc3F)c(=O)c(C(=O)O)cn4CC)CC2)c2ccccc21 | 3.12 | 37.5 | 12.02 |
| CCN(CC)C(=S)N/N=C1\C(=O)N(CN(Cc2ccccc2)Cc2ccccc2)c2ccccc21 | > 8.29 | 8.29 | <1 |
| CCN(CC)C(=S)N/N=C1\C(=O)N(CN(C)C)c2ccccc21 | > 2.86 | 2.86 | <1 |
| O=C1Nc2ccc(Cl)cc2[C@@](C#CC2CC2)(C(F)(F)F)O1 [EFAVIRENZ] | 0.78 | > 200 | >256 |

Second part, led by results:

| EC50 [1] [µM] | Compound | CC50 (CCRF-CEM) [µM] | Selectivity index [2] |
| --- | --- | --- | --- |
| 2.62 | CCN(CC)C(=S)N/N=C1\C(=O)N(CN2CCN(c3cccc(C(F)(F)F)c3)CC2)c2ccccc21 | 44.9 | 17.14 |
| > 12.8 | CCN(CC)C(=S)N/N=C1\C(=O)N(CN2CCN(c3ncccn3)CC2)c2ccccc21 | 12.8 | <1 |
| 3.4 | CCN(CC)C(=S)N/N=C1\C(=O)N(CN2CCN(Cc3ccccc3)CC2)c2ccccc21 | 14 | 4.12 |
| > 14.5 | CCN(CC)C(=S)N/N=C1\C(=O)N(CN2CCN(c3ccc(F)cc3)CC2)c2ccccc21 | 14.5 | <1 |
| > 11.9 | CCN(CC)C(=S)N/N=C1\C(=O)N(CN2CCN(c3ccc([N+](=O)[O-])cc3)CC2)c2ccccc21 | 11.9 | <1 |
